Measurements as given in patent publication US20230011571A1, “SMALL MOLECULE FURIN INHIBITORS FOR TREATING INFECTIOUS DISEASES” (BP Asset V, Inc., priority 2019, published 2023).

Assays:
Type in all cases: cell-based
[1] = system: Chikungunya virus (CHIKV); experiment: microbe, parasite or virus in culture; conditions: Chikungunya virus, Vero, 48 h, read-out: Percent viral inhibition CHKV
Marburg virus (MARV) = experiment: organism not typed; conditions: Vero, 72 h, read-out: Percent viral inhibition MARV
dengue virus (DENV) = experiment: microbe, parasite or virus in culture; conditions: Dengue virus, Vero, 120 h, read-out: Percent viral inhibition DENY

| SMILES | inhibition at 1 µM [1] | inhibition at 1 µM (Marburg virus (MARV)) | inhibition at 1 µM (dengue virus (DENV)) |
| --- | --- | --- | --- |
| CC(=O)NCC1CCN(Cc2cc(Oc3cnc(N4CCN(CCO)CC4)nc3)nc(-c3cc(Cl)cc(Cl)c3)c2)CC1 [Example 93, N-((1-((2-(3,5-dichlorophenyl)-6-((2-(4-(2-hydroxyethyl)piperazin-1-yl)pyrimidin-5-yl)oxy)pyridin-4-yl)methyl)piperidin-4-yl)methyl)acetamide] | 0% | 10.4% | 56.7% |
| O=C(O)CC1CCN(Cc2cc(Oc3cnc(N4CCN(CC(O)CO)CC4)nc3)nc(-c3cc(Cl)cc(Cl)c3)c2)CC1 (stereo not drawn) [Example 177, 2-(1-((2-(3,5-dichlorophenyl)-6-((2-(4-(2,3-dihydroxypropyl)piperazin-1-yl)pyrimidin-5-yl)oxy)pyridin-4-yl)methyl)piperidin-4-yl)acetic acid] | 14.3% | 37% | 24% |
| CNC(=O)CN1CCN(Cc2cc(Oc3ccc(N4CCNCC4)nc3)nc(-c3cc(Cl)cc(Cl)c3)c2)CC1 [Example 1, 2-(4-((2-(3,5-dichlorophenyl)-6-((6-(piperazin-1-yl)pyridin-3-yl)oxy)pyridin-4-yl)methyl)piperazin-1-yl)-N-methylacetamide] | 6.99% | 0% | 0% |
| CC(=O)NCC1CCN(Cc2cc(Oc3ccc(N4CCN(CCC(=O)O)CC4)nc3)nc(-c3cc(F)cc(Cl)c3)c2)CC1 [Example 115, 3-(4-(5-((4-((4-(acetamidomethyl)piperidin-1-yl)methyl)-6-(3-chloro-5-fluorophenyl)pyridin-2-yl)oxy)pyridin-2-yl)piperazin-1-yl)propanoic acid] | 4.53% | 59.2% | 2.3% |
| CN1C2CC1CN(c1ncc(Oc3cc(CN4CCC(CC(=O)O)CC4)cc(-c4cc(Cl)cc(Cl)c4)n3)cn1)C2 [Example 228, 2-(1-((2-(3,5-dichlorophenyl)-6-((2-(6-methyl-3,6-diazabicyclo[3.1.l]heptan-3-yl)pyrimidin-5-yl)oxy)pyridin-4-yl)methyl)piperidin-4-yl)acetic acid] | 17.3% | 36.2% | 31.9% |
| CC(=O)NCC1CCN(Cc2cc(Oc3cnc(N4CCN(C)CC4)nc3)nc(-c3cc(Cl)cc(Cl)c3)c2)CC1 [Example 64, N-((1-((2-(3,5-dichlorophenyl)-6-((2-(4-methylpiperazin-1-yl)pyrimidin-5-yl)oxy)pyridin-4-yl)methyl)piperidin-4-yl)methyl)acetamide] | 6.9% | 37.8% | 37% |
| CN1CCN(c2ncc(Oc3cc(CN4CCC(CCC(=O)O)CC4)cc(-c4cc(Cl)cc(Cl)c4)n3)cn2)CC1 [Example 130, 3-(1-((2-(3,5-dichlorophenyl)-6-((2-(4-methylpiperazin-1-yl)pyrimidin-5-yl)oxy)pyridin-4-yl)methyl)piperidin-4-yl)propanoic acid] | 28.4% | 33.3% | 33% |
| CN1C[C@@H]2C[C@H]1CN2c1ccc(Oc2cc(CN3CCC(CC(=O)O)CC3)cc(-c3cc(Cl)cc(Cl)c3)n2)cn1 [Example 203, 2-(1-((2-(3,5-dichlorophenyl)-6-((6-((1S,4S)-5-methyl-2,5-diazabicyclo[2.2.1]heptan-2-yl)pyridin-3-yl)oxy)pyridin-4-yl)methyl)piperidin-4-yl)acetic acid] | 23.6% | 55.2% | 7.17% |
| CN1CCN(c2ncc(Oc3cc(CN4CCC(NC(N)=O)CC4)cc(-c4cc(Cl)cc(Cl)c4)n3)cn2)CC1 [Example 329, 1-(1-((2-(3,5-dichlorophenyl)-6-((2-(4-methylpiperazin-1-yl)pyrimidin-5-yl)oxy)pyridin-4-yl)methyl)piperidin-4-yl)urea] | 22.2% | 42.3% | 19.2% |
| CCC(CN1CCN(c2ccc(Oc3cc(CN4CCC(CNC(C)=O)CC4)cc(-c4cc(Cl)cc(Cl)c4)n3)cn2)CC1)C(=O)O (stereo not drawn) [Example 288, 2-((4-(5-((4-((4-(acetamidomethyl)piperidin-1-yl)methyl)-6-(3,5-dichlorophenyl)pyridin-2-yl)oxy)pyridin-2-yl)piperazin-1-yl)methyl)butanoic acid] | 28.2% | 49.1% | 52.2% |
| CNC(=O)OCC1CCN(Cc2cc(Oc3cnc(N4CCN(C)CC4)nc3)nc(-c3cc(Cl)cc(Cl)c3)c2)CC1 [Example 66, (1-((2-(3,5-dichlorophenyl)-6-((2-(4-methylpiperazin-1-yl)pyrimidin-5-yl)oxy)pyridin-4-yl)methyl)piperidin-4-yl)methylmethylcarbamate] | 7.64% | 60.7% | 57.9% |
| CN1CCN(c2ncc(Oc3cc(CN4CC[C@@H]5[C@H](CC4)[C@H]5C(=O)O)cc(-c4cc(Cl)cc(Cl)c4)n3)cn2)CC1 [Example 321, (1R,7S,8r)-4-((2-(3,5-dichlorophenyl)-6-((2-(4-methylpiperazin-1-yl)pyrimidin-5-yl)oxy)pyridin-4-yl)methyl)-4-azabicyclo[5.1.0]octane-8-carboxylic acid] | 23.8% | 43.4% | 27.3% |
| CC(CC1CCN(Cc2cc(Oc3cnc(N4CCCN(C)CC4)cn3)nc(-c3cc(Cl)cc(Cl)c3)c2)CC1)C(=O)O (stereo not drawn) [Example 351, 3-(1-((2-(3,5-dichlorophenyl)-6-((5-(4-methyl-1,4-diazepan-1-yl)pyrazin-2-yl)oxy)pyridin-4-yl)methyl)piperidin-4-yl)-2-methylpropanoic acid] | 22.7% | 60.4% | 42.8% |
| CN1CCN(c2ncc(Oc3cc(CN4CCC(CC(=O)O)CC4)cc(-c4cc(Cl)cc(Cl)c4)n3)cn2)CC(C)(O)C1 (stereo not drawn) [Example 146, 2-(1-((2-(3,5-dichlorophenyl)-6-((2-(6-hydroxy-4,6-dimethyl-1,4-diazepan-1-yl)pyrimidin-5-yl)oxy)pyridin-4-yl)methyl)piperidin-4-yl)acetic acid] | 23.1% | 66.2% | 41.8% |
| CC(=O)NCC1CCN(Cc2cc(Oc3cnc(N4CCN(CCC(=O)O)CC4)cn3)nc(-c3cc(Cl)cc(Cl)c3)c2)CC1 [Example 111] | 22.3% | 29.8% | 48.8% |
| CC(C)N1CCN(c2cnc(Oc3cc(CN4CCC(CC(=O)O)CC4)cc(-c4cc(Cl)cc(Cl)c4)n3)cn2)CC1 [Example 347, 2-(1-((2-(3,5-dichlorophenyl)-6-((5-(4-isopropylpiperazin-1-yl)pyrazin-2-yl)oxy)pyridin-4-yl)methyl)piperidin-4-yl)acetic acid] | 24.9% | 57.7% | 56.8% |
| CCOC(=O)NCC1CCN(Cc2cc(Oc3cnc(N4CCN(CCC(=O)O)CC4)nc3)nc(-c3cc(Cl)cc(Cl)c3)c2)CC1 [Example 267, 3-(4-(5-((6-(3,5-dichlorophenyl)-4-((4-(((ethoxycarbonyl)amino)methyl)piperidin-1-yl)methyl)pyridin-2-yl)oxy)pyrimidin-2-yl)piperazin-1-yl) propanoic acid] | 34.6% | 65% | 37% |
| CC(=O)NCC1CCN(Cc2cc(Oc3ccc(N)cc3)cc(-c3cc(Cl)cc(Cl)c3)c2)CC1 [Example 42, N-((1-((5-(4-aminophenoxy)-3′,5′-dichloro-[1,1′-biphenyl]-3-yl)methyl)piperidin-4-yl)methyl)acetamide] | 7.42% | 0% | 24% |
| COC(=O)NCC1CCN(Cc2cc(Oc3cnc(N4CCN(C(C)CCC(=O)O)CC4)nc3)nc(-c3cc(Cl)cc(Cl)c3)c2)CC1 (stereo not drawn) [Example 222, 4-(4-(5-((6-(3,5-dichlorophenyl)-4-((4-(((methoxycarbonyl)amino)methyl)piperidin-1-yl)methyl)pyridin-2-yl)oxy)pyrimidin-2-yl)piperazin-1-yl)pentanoic acid] | 25% | 60% | 17.6% |
| CNC(=O)NCC1CCN(Cc2cc(Oc3ccc(N4CCN(CCCS(C)(=O)=O)CC4)nc3)nc(-c3cc(Cl)cc(Cl)c3)c2)CC1 [Example 255, 1-((1-((2-(3,5-dichlorophenyl)-6-((6-(4-(3-(methylsulfonyl)propyl)piperazin-1-yl)pyridin-3-yl)oxy)pyridin-4-yl)methyl)piperidin-4-yl)methyl)-3-methylurea] | 16.1% | 40.1% | 10.3% |
| CC(CC1CCN(Cc2cc(Oc3cnc(N4CCN(C[C@@H](C)O)CC4)nc3)nc(-c3cc(Cl)cc(Cl)c3)c2)CC1)C(=O)O (stereo partly drawn) [Example 301, 3-(1-((2-(3,5-dichlorophenyl)-6-((2-(4-((R)-2-hydroxypropyl)piperazin-1-yl)pyrimidin-5-yl)oxy)pyridin-4-yl)methyl)piperidin-4-yl)-2-methylpropanoic acid] | 28.8% | 68.4% | 56.1% |
| CC(CCO)N1CCN(c2ncc(Oc3cc(CN4CCC(CC(=O)O)CC4)cc(-c4cc(Cl)cc(Cl)c4)n3)cn2)CC1 (stereo not drawn) [Example 238, 2-(1-((2-(3,5-dichlorophenyl)-6-((2-(4-(4-hydroxybutan-2-yl)piperazin-1-yl)pyrimidin-5-yl)oxy)pyridin-4-yl)methyl)piperidin-4-yl)acetic acid] | 35.8% | 56.8% | 66.1% |
| O=C(O)COC1CCN(Cc2cc(Oc3cnc(N4CCNCC4)nc3)nc(-c3cc(Cl)cc(Cl)c3)c2)CC1 [Example 122, 2-((1-((2-(3,5-dichlorophenyl)-6-((2-(piperazin-1-yl)pyrimidin-5-yl)oxy)pyridin-4-yl)methyl)piperidin-4-yl)oxy)acetic acid] | 35.5% | 23.6% | 33.7% |
